The test system of data set [1] is HL-60 myeloid leukemia cell line. To be noted: in P123 Pluronic micelles; for cell growth inhibition compared with vehicle: HL-60, up to 0.24 μM, 3 days.
Method: The in vitro anti-leukemic activity of both chelates using the HL-60 myeloid leukemia cell line was compared. […] The DETC/metal chelates were initially dissolved in dimethylsulfoxide (DMSO). This 2 mM DETC/metal stock in DMSO was then mixed with a polymer stock and micellization was allowed to occur at room temperature. The final polymer concentration was 2% by weight. […] DETC/metal chelates were added at concentrations of up to 0.24 μM. Cell growth was assessed after 3 days using the MTS assay.
In data set [2] the test system is HL-60 cells. The data set is described as follows: Leukemia cell growth in vivo, HL-60 flank tumors in mice. The arrangement: species or system NOD/SCID IL2Rγ^null mice. From the text:
In another preliminary experiment, the effect of DETC/metal chelates on leukemia cell growth in vivo was studied. NOD/SCID IL2Rγ^null mice were implanted bilaterally in the flanks with 19×10^6 HL-60 cells. […] The experiment was terminated on day 15. At that point 3 out of 4 control animals had died and the one remaining alive had tumor volumes that had exceeded 10% of initial body weight. None of the animals treated with DETC/Cu died.

Data set [3] relates to HL-60 cells. To be noted: HL-60, 0.32 μM, 24 hours, average and SEM of 3 experiments; controls 7±1%.
Method: HL-60 cells were treated with DETC/Cu^2+ at a concentration of 0.32 μM for 24 hours upon which the number of apoptotic cells was determined using propidium iodide (PI) staining and flow cytometry. Analysis for the presence of apoptotic cells was modeled using the ModFit software.
The subject of data set [4] is colon cancer cell line DLD-1. To be noted: read-out: 50% growth inhibitory concentration (IC50); DLD-1, two days, in P123 micelles.
Method: (§1) The effect of DETC/Cu^2+ chelates on the growth of 3 solid tumor cell lines in vitro was studied. The cell lines studied were the colon cancer cell line DLD-1, the prostate cancer cell line PPC-1 and the hepatoma cell line Hep-3B. […] Cells in logarithmic growth phase were cultured in RPMI1640/10% FBS media at a concentration of 120,000 cells/mL. DETC/Cu^2+ was added to the cells at concentrations ranging from 0 to 1 μM. […] Two days after drug addition, cell growth was assayed using the CellTiter 96 assay from Promega (Madison, Wis.) using the manufacturer's protocol.
For data set [5], the system named is prostate cancer cell line PPC-1. The conditions noted are these: read-out: 50% growth inhibitory concentration (IC50); PPC-1, two days, in P123 micelles.
Method: as §1
The subject of data set [6] is hepatoma cell line Hep-3B. The conditions noted are these: read-out: 50% growth inhibitory concentration (IC50), two days, in P123 micelles.
Method: as §1

In the case of `CCN(CC)C(=S)[S-].[Ag+]` [DETC/Ag^+, silver salt of diethyldithiocarbamate], the “cell growth inhibition compared with vehicle” value in data set [1] is “growth inhibition to a much greater extent”.

`CCN(CC)C(=S)[S-].CCN(CC)C(=S)[S-].[Cu+2]` [DETC/Cu^2+, copper salt of diethyldithiocarbamate]: in the data set with HL-60 cells [2] (2 μmol/kg intravenously every other day, in P123 micelles), the toxicity result was “No obvious toxicity”. Moreover, the “tumor volume, tumor growth” value with HL-60 cells [2] (after 12 days of therapy, 2 μmol/kg i.v. every other day, versus P123 micelle controls) is reported as “delay in tumor growth”. Moreover, the animals that died result in the data set on HL-60 cells [2] (day 15, 4 mice per group, 3 out of 4 controls died) is recorded as “None”. Besides, in data set [1] (HL-60, 3 days), the “relative potency of growth inhibition” value is listed as “more potent than the DETC/Ag^+ chelate”. For the same compound, in data set [1], the “cell growth inhibition compared with vehicle” value is on record as “growth inhibition to a much greater extent”. In addition, in the data set with HL-60 cells [3], the apoptotic cells is listed as 16±2%. Also, the IC50 in data set [4] worked out at 370 nM; in data set [5], 180 nM; in data set [6], 130 nM.

The record behind these values is patent US20110206756A1, “DITHI[…] CHELATES AND METHODS OF MAKING AND USING THEREOF” (UNIVERSITY OF UTAH RESEARCH FOUNDATION, priority 2008, published 2011).
